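A five-concentration, 48-hour dose response in 96-well plates underlies each endpoint, interpolated linearly between surrounding concentrations. At the GI50, growth is halved.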 Calls of active or inactive are those of the source. Rule as the data show it: active = GI50 up to about 1.1 µM and inactive = higher.
Columns and labels:
Test in all cases: DTP human tumour cell line panel, 48 h
[1] = tested on: 786-0
[2] = tested on: A498
[3] = tested on: A549
[4] = tested on: ACHN
[5] = tested on: BT-549
[6] = tested on: CAKI-1
[7] = tested on: CCRF-CEM
[8] = tested on: COLO 205
[9] = tested on: DU-145
[10] = tested on: EKVX
[11] = tested on: HCC 2998
[12] = tested on: HCT-116
[13] = tested on: HCT-15
[14] = tested on: HL-60
[15] = tested on: HOP-62
[16] = tested on: HOP-92
[17] = tested on: HT-29
[18] = tested on: Hs-578T
[19] = tested on: IGROV-1
[20] = tested on: K562
[21] = tested on: KM12
[22] = tested on: LOX IMVI
[23] = tested on: M14
[24] = tested on: MCF7
[25] = tested on: MDA-MB-231
[26] = tested on: MDA-MB-435
[27] = tested on: MDA-N
[28] = tested on: MOLT-4
[29] = tested on: Malme-3M
[30] = tested on: NCI-H226
[31] = tested on: NCI-H23
[32] = tested on: NCI-H460
[33] = tested on: NCI-H522
[34] = tested on: NCI/ADR-RES
[35] = tested on: OVCAR-3
[36] = tested on: OVCAR-4
[37] = tested on: OVCAR-5
[38] = tested on: OVCAR-8
[39] = tested on: PC-3
[40] = tested on: RXF 393
[41] = tested on: SF-268
[42] = tested on: SF-295
[43] = tested on: SF-539
[44] = tested on: SK-MEL-28
[45] = tested on: SK-MEL-2
[46] = tested on: SK-MEL-5
[47] = tested on: SK-OV-3
[48] = tested on: SN12C
[49] = tested on: SNB-19
[50] = tested on: SNB-75
[51] = tested on: SR
[52] = tested on: SW-620
[53] = tested on: T47D
[54] = tested on: TK-10
[55] = tested on: U-251
[56] = tested on: UACC-257
[57] = tested on: UACC-62
[58] = tested on: UO-31
[59] = tested on: RPMI-8226

How did the GI50 [1] turn out when `COC(=O)C1=C(C(=O)OC)SC2(S1)C(C(=O)OC)=C(C(=O)OC)Sc1c2ss/c1=N\c1ccc(Cl)cc1` was run?
The GI50 was 0.516 µM (active).

What about the GI50 [2] of the same compound?
The GI50 was 1.77 µM (inactive).

And the GI50 [3]?
Its GI50 is 1.56 µM (inactive).

What about the GI50 [4] of the same compound?
Its GI50 is 1.4 µM (inactive).

And the GI50 [5]?
The GI50 was 1.91 µM (inactive).

And the GI50 [6]?
The GI50 was 0.733 µM (active).

What about the GI50 [7] of the same compound?
Its GI50 is 0.197 µM (active).

What about the GI50 [8] of the same compound?
Its GI50 is 0.774 µM (active).

What about the GI50 [9] of the same compound?
Its GI50 is 0.479 µM (active).

And the GI50 [10]?
The GI50 was 1.45 µM (inactive).

And the GI50 [11]?
The GI50 was 0.325 µM (active).

What about the GI50 [12] of the same compound?
The GI50 was 0.283 µM (active).

And the GI50 [13]?
The GI50 was 0.318 µM.

What about the GI50 [14] of the same compound?
Its GI50 is 1.11 µM (active).

What about the GI50 [15] of the same compound?
The GI50 was 1.67 µM (inactive).

And the GI50 [16]?
The GI50 was 0.638 µM (active).

And the GI50 [17]?
The GI50 was 0.525 µM (active).

And the GI50 [18]?
Its GI50 is 2.84 µM (inactive).

What about the GI50 [19] of the same compound?
Its GI50 is 1.14 µM (inactive).

What about the GI50 [20] of the same compound?
The GI50 was 1.31 µM (inactive).

What about the GI50 [21] of the same compound?
The GI50 was 0.767 µM (active).

What about the GI50 [22] of the same compound?
Its GI50 is 0.339 µM (active).

And the GI50 [23]?
Its GI50 is 1.43 µM (inactive).

What about the GI50 [24] of the same compound?
Its GI50 is 1.11 µM (active).

What about the GI50 [25] of the same compound?
The GI50 was 0.948 µM (active).

And the GI50 [26]?
Its GI50 is 0.794 µM (active).

And the GI50 [27]?
Its GI50 is 0.47 µM (active).

What about the GI50 [28] of the same compound?
The GI50 was 0.336 µM (active).

What about the GI50 [29] of the same compound?
Its GI50 is 1.83 µM (inactive).

What about the GI50 [30] of the same compound?
The GI50 was 1.79 µM (inactive).

And the GI50 [31]?
Its GI50 is 1.83 µM (inactive).

And the GI50 [32]?
The GI50 was 0.333 µM (active).

And the GI50 [33]?
The GI50 was 0.352 µM (active).

And the GI50 [34]?
Its GI50 is 1.84 µM (inactive).

And the GI50 [35]?
Its GI50 is 1.39 µM (inactive).

What about the GI50 [36] of the same compound?
Its GI50 is 1.18 µM (inactive).

What about the GI50 [37] of the same compound?
The GI50 was 1.45 µM (inactive).

And the GI50 [38]?
The GI50 was 1.32 µM (inactive).

What about the GI50 [39] of the same compound?
The GI50 was 0.44 µM (active).

And the GI50 [40]?
The GI50 was 0.256 µM (active).

And the GI50 [41]?
Its GI50 is 1.13 µM (inactive).

What about the GI50 [42] of the same compound?
The GI50 was 2.19 µM (inactive).

And the GI50 [43]?
Its GI50 is 0.51 µM (active).

And the GI50 [44]?
Its GI50 is 1.7 µM (inactive).

And the GI50 [45]?
The GI50 was 0.325 µM (active).

What about the GI50 [46] of the same compound?
The GI50 was 1.39 µM (inactive).

And the GI50 [47]?
Its GI50 is 2 µM (inactive).

What about the GI50 [48] of the same compound?
Its GI50 is 0.552 µM (active).

And the GI50 [49]?
The GI50 was 1.53 µM (inactive).

And the GI50 [50]?
Its GI50 is 1.07 µM (active).

What about the GI50 [51] of the same compound?
Its GI50 is 0.277 µM (active).

And the GI50 [52]?
Its GI50 is 0.425 µM (active).

What about the GI50 [53] of the same compound?
The GI50 was 1.06 µM (active).

What about the GI50 [54] of the same compound?
The GI50 was 1.4 µM (inactive).

And the GI50 [55]?
The GI50 was 1.35 µM (inactive).

And the GI50 [56]?
The GI50 was 1.1 µM (active).

And the GI50 [57]?
The GI50 was 1.19 µM (inactive).

What about the GI50 [58] of the same compound?
The GI50 was 0.804 µM (active).

With `CSc1nc(SC)c2c(C)cn(COCCOC(=O)c3ccccc3)c2n1` as the compound, how does the GI50 [1] read?
Its GI50 is > 100 µM (inactive).

What about the GI50 [2] of the same compound?
Its GI50 is 42.6 µM (inactive).

What about the GI50 [3] of the same compound?
The GI50 was > 100 µM (inactive).

What about the GI50 [4] of the same compound?
Its GI50 is > 100 µM (inactive).

What about the GI50 [5] of the same compound?
The GI50 was > 100 µM (inactive).

What about the GI50 [6] of the same compound?
The GI50 was > 100 µM (inactive).

What about the GI50 [7] of the same compound?
Its GI50 is 64.1 µM (inactive).

And the GI50 [8]?
The GI50 was > 100 µM (inactive).

And the GI50 [9]?
Its GI50 is 69.8 µM (inactive).

What about the GI50 [10] of the same compound?
Its GI50 is > 100 µM (inactive).

And the GI50 [11]?
The GI50 was > 100 µM (inactive).

And the GI50 [12]?
Its GI50 is 83 µM (inactive).

And the GI50 [13]?
The GI50 was > 100 µM.

What about the GI50 [14] of the same compound?
Its GI50 is 36.7 µM (inactive).

And the GI50 [15]?
The GI50 was > 100 µM (inactive).

And the GI50 [16]?
Its GI50 is 41.5 µM (inactive).

What about the GI50 [17] of the same compound?
The GI50 was > 100 µM (inactive).

And the GI50 [18]?
The GI50 was 54.1 µM (inactive).

And the GI50 [19]?
Its GI50 is > 100 µM (inactive).

What about the GI50 [21] of the same compound?
Its GI50 is > 100 µM (inactive).

And the GI50 [22]?
The GI50 was 58.2 µM (inactive).

What about the GI50 [23] of the same compound?
Its GI50 is > 100 µM (inactive).

And the GI50 [24]?
The GI50 was 76.4 µM (inactive).

And the GI50 [25]?
Its GI50 is > 100 µM (inactive).

And the GI50 [26]?
The GI50 was > 100 µM (inactive).

And the GI50 [27]?
Its GI50 is > 100 µM (inactive).

And the GI50 [28]?
Its GI50 is 59.6 µM (inactive).

And the GI50 [29]?
Its GI50 is > 100 µM (inactive).

What about the GI50 [30] of the same compound?
Its GI50 is > 100 µM (inactive).

And the GI50 [31]?
The GI50 was > 100 µM (inactive).

And the GI50 [32]?
The GI50 was 88.5 µM (inactive).

And the GI50 [33]?
Its GI50 is > 100 µM (inactive).

And the GI50 [34]?
The GI50 was > 100 µM (inactive).

What about the GI50 [35] of the same compound?
Its GI50 is > 100 µM (inactive).

And the GI50 [36]?
Its GI50 is > 100 µM (inactive).

What about the GI50 [37] of the same compound?
Its GI50 is > 100 µM (inactive).

And the GI50 [38]?
Its GI50 is > 100 µM (inactive).

And the GI50 [39]?
The GI50 was 74.5 µM (inactive).

What about the GI50 [59] of the same compound?
Its GI50 is 69.5 µM (inactive).

And the GI50 [40]?
The GI50 was 82.6 µM (inactive).

And the GI50 [41]?
The GI50 was > 100 µM (inactive).

What about the GI50 [42] of the same compound?
Its GI50 is > 100 µM (inactive).

And the GI50 [43]?
The GI50 was 27.3 µM (inactive).

What about the GI50 [44] of the same compound?
The GI50 was > 100 µM (inactive).

What about the GI50 [45] of the same compound?
Its GI50 is > 100 µM (inactive).

And the GI50 [46]?
Its GI50 is > 100 µM (inactive).

What about the GI50 [47] of the same compound?
Its GI50 is 24.3 µM (inactive).

And the GI50 [48]?
The GI50 was > 100 µM (inactive).

What about the GI50 [49] of the same compound?
The GI50 was > 100 µM (inactive).

And the GI50 [50]?
Its GI50 is 50.2 µM (inactive).

And the GI50 [51]?
Its GI50 is > 100 µM (inactive).

And the GI50 [52]?
The GI50 was > 100 µM (inactive).

And the GI50 [53]?
Its GI50 is 32.8 µM (inactive).

What about the GI50 [54] of the same compound?
Its GI50 is > 100 µM (inactive).

What about the GI50 [55] of the same compound?
Its GI50 is > 100 µM (inactive).

And the GI50 [57]?
Its GI50 is > 100 µM (inactive).

What about the GI50 [58] of the same compound?
The GI50 was 44.3 µM (inactive).
